Assays:
[1] = biological target: Triosephosphate isomerase, chloroplastic (Secale cereale) (UniProt P46225); test: Inhibition of desalted triosephosphate isomerase in Lolium multiflorum (Italian rye grass) shoot assessed as transformation of GAP to DHAP applied at concentration of 20.0 mg/flat measured per mg protein after 48 hr by coupled enzyme assay (reference value: 9.80 +/-0.43 nmol/sec)
[2] = biological target: Triosephosphate isomerase, chloroplastic (Secale cereale) (UniProt P46225); test: Inhibition of desalted triosephosphate isomerase in Lolium multiflorum (Italian rye grass) shoot assessed as transformation of GAP to DHAP applied at concentration of 4.43 mg/flat measured per mg protein after 48 hr by coupled enzyme assay (reference value: 9.80 +/-0.43 nmol/sec)
[3] = biological target: Triosephosphate isomerase, chloroplastic (Secale cereale) (UniProt P46225); test: Inhibition of desalted triosephosphate isomerase in Lolium multiflorum (Italian ryegrass) shoot assessed as decrease in transformation of GAP to DHAP applied at concentration of 14.4 mg/flat measured after 48 hr by coupled enzyme assay
[4] = biological target: Triosephosphate isomerase, chloroplastic (Secale cereale) (UniProt P46225); test: Inhibition of desalted triosephosphate isomerase in Lolium multiflorum (Italian ryegrass) shoot assessed as transformation of GAP to DHAP applied at concentration of 14.4 mg/flat measured per mg protein after 48 hr by coupled enzyme assay (reference value: 9.80 +/-0.43 nmol/sec)
[5] = biological target: Triosephosphate isomerase, chloroplastic (Secale cereale) (UniProt P46225); test: Inhibition of desalted triosephosphate isomerase in Lolium multiflorum (Italian ryegrass) shoot assessed as transformation of GAP to DHAP applied at concentration of 1.80 mg/flat measured per mg protein after 48 hr by coupled enzyme assay (reference value: 9.80 +/-0.43 nmol/sec)

Triosephosphate isomerase, chloroplastic (Secale cereale), sequence (P46225 whole entry): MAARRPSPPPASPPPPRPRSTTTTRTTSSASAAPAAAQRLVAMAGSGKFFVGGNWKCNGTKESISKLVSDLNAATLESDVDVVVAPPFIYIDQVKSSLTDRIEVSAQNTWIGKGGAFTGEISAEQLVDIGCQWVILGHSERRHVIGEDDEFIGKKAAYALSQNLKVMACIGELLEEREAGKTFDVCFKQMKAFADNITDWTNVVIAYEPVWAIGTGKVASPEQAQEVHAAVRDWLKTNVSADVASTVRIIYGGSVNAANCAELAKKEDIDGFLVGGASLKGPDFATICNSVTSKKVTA

Compound | inhibition [3] | Activity [4] | further results
CCc1cccc(C)c1N(C(=O)CCl)C(C)COC (configuration not stated) | – | – | Activity [1]: 9.57 nmol/s
CCOC(=O)c1nc(C(Cl)(Cl)Cl)n(-c2ccc(Cl)cc2Cl)n1 | – | – | Activity [2]: 10.2 nmol/s
CCNc1nc(Cl)nc(NC(C)C)n1 | 26.5% | 7.2 nmol/s | –
O=[N+]([O-])c1ccc(Oc2ccc(C(F)(F)F)cc2[N+](=O)[O-])cc1 | 35.9% | 6.28 nmol/s | –
CCOC(=O)C(C)Oc1ccc(Oc2nc3ccc(Cl)cc3o2)cc1 (configuration not stated) | – | – | Activity [5]: 9.3 nmol/s
